Laboratory results published in patent US20100022476A1, “PYRAZOLYLAMINO SUBSTITUTED QUINAZOLES FOR THE TREATMENT OF CANCER” (ASTRAZENECA AB, priority 2004, published 2010).

What was measured:
[1] = system: drug-resistant MCF7-ADR human breast tumour cells; test: In vitro drug-resistant cell phenotype and substrate phosphorylation assay (phosphohistone H3); format: cell-based; settings: NCI/ADR-RES, MCF7-ADR cells overexpressing drug-resistant proteins, read-out: EC50 for inhibition of phosphohistone H3 levels
Procedure: (d) In Vitro Drug-Resistant Cell Phenotype and Substrate Phosphorylation Assay.
This assay is used to determine the cellular effects of compounds on drug-resistant MCF7-ADR human breast tumour cells in vitro.
Compounds typically cause inhibition of levels of phosphohistoneH3 and an increase in the nuclear area of treated cells.
0.8×10^4 MCF7-ADR cells per well were plated in 100 μl DMEM media (containing 10% FCS (foetal calf serum) and 1% glutamine) in costar 96 well plates and left overnight at 37° C. and 5% CO2 to adhere.
All other procedures are identical to those for the above assay using SW620 cells.

[2] = Plasma protein binding assay (equilibrium dialysis); format: in vitro ADME; settings: human plasma, 20 μM compound, dialysed 18 hours at 37° C.
Procedure: (e) Plasma Protein Binding Assay
Plasma protein binding was measured using the equilibrium dialysis technique. Compound was added to human plasma to a concentration of 20 μM and dialysed with isotonic phosphate/sodium chloride buffer for 18 hours at 37° C. The plasma and buffer solutions on each side of the dialysis membrane were analysed using a generic LCUVMS (Waters 2795 HPLC with Micromass ZQ mass spectrometer) and the percentage of free compound in 100% plasma was determined.

[3] = system: SW620 human colon tumour cells; test: In vitro cell phenotype and substrate phosphorylation assay (phosphohistone H3); format: cell-based; settings: SW-620, 24 hours of treatment, read-out: EC50 for inhibition of phosphohistone H3 levels
Procedure: (c) In Vitro Cell Phenotype and Substrate Phosphorylation Assay
This assay is used to determine the cellular effects of compounds on SW620 human colon tumour cells in vitro. Compounds typically cause inhibition of levels of phosphohistone H3 and an increase in the nuclear area of the cells.
10^4 SW620 cells per well were plated in 100 μl DMEM media (containing 10% FCS and 1% glutamine) (DMEM is Dulbecco's Modified Eagle's Medium (Sigma D6546)) in costar 96 well plates and left overnight at 37° C. and 5% CO2 to adhere. The cells were then dosed with compound diluted in media (50 μl is added to each well to give 0.00015μ-1 μM concentrations of compound) and after 24 hours of treatment with compound, the cells were fixed.
The cells were first examined using a light microscope and any cellular changes in morphology were noted. 100 μl of 3.7% formaldehyde was then added to each well, and the plate was left for at least 30 minutes at room temperature. Decanting and tapping the plate on a paper towel removed the fixative and plates were then washed once in PBS (Dulbecco's Phosphate Buffered Saline (Sigma D8537)) using an automated plate washer. […]
The next day, the antibody was tipped off and the plates were washed twice with PBS. […] 100 μl PBS was added to each well and the plates were sealed ready to analyse. […]

- EC50 [1]: 400 nM
- percentage of free compound in 100% plasma [2]: 3.9%
- EC50 [3]: 7.6 nM
Compound: COc1cc(OCCN(C)CCO)c2c(Nc3cc(CC(=O)Nc4cccc(F)c4F)[nH]n3)ncnc2c1 [Compound 9, N-(2,3-difluorophenyl)-2-{3-[(5-{2-[(2-hydroxyethyl)(methyl)amino]ethoxy}-7-methoxyquinazolin-4-yl)amino]-1H-pyrazol-5-yl}acetamide]
